Where “and” joins values, the source holds several entries; their conditions need not be identical. Equal entries are not always repeated. Where two headings read alike, the source gives them in different places.
Experiments:
cytochrome C = conditions: Jurkat T cells, 50 μM, 2 to 4 hours
Description: At each time point, cells were washed twice with PBS, resuspended in a hypotonic buffer containing 20 mM HEPES (pH 7.5), 1.5 mM MgCl2, 5 mM KCl and 1 mM DTT, and incubated on ice for 10 min. The cells are dounced 30 times, and the lysate is centrifuged at 2,000×g for 10 min. The supernatant is collected and centrifuged again at the same condition. The resulting supernatant is then centrifuged at 20,500×g for 30 min, followed by collection of both the supernatant (cytosol) and pellet fractions. The pellet is washed twice with a buffer containing 210 mM mannitol, 70 mM sucrose, 5 mM Tris-HCl (pH 7.5) and 1 mM EDTA, and resuspended in the lysis buffer as the mitochondria fraction.

caspase-9 [1] = conditions: 50 μM, up to 48 hours
Description: (§1) (FIG. 19A) MTT assay. (FIG. 19B) Cell-free caspase-9 activity assay. A protein extract (20 μg) is incubated with 20 μM Ac-LEHD-AFC (the specific caspase-9 substrate) in a 96-well plate at 37° C. for 2 h. After incubation, the liberated florescent AFC groups are measured by Wallac Victor 1420 Multilabel counter with 405/535 nm filters. […] Both intact and active forms of caspase-3 are indicated. […] Both detached and attached populations of Va-13 or WI-38 cells are collected, and used for nuclear staining assay with DNA staining dye Hoechst 33342.

caspase-3 [2] = conditions: 50 μM, up to 48 hours
Description: as §1

caspase-3 [3] = test: Cell-free caspase-3 activity assay on extracts of treated Jurkat T cells; type: cell-based, human
Description: Briefly, a prepared protein extract (20 μg) is incubated in a buffer containing 50 mM Tris/pH 8.0 along with each respective caspase substrate at 20 μM in a 96 well plate. The reaction mixture is incubated at 37° C. for 2 h.
A library of β-lactam analogs was screened for their ability to induce apoptosis. The screening procedure is accomplished by treating human Jurkat T cells with each compound at 50 μM for 8 hours. This is followed by preparation of cell lysates and measurement of apoptosis-specific caspase-3 activation (by cell-free caspase-3 activity assay) and PARP cleavage (by Western blotting).

caspase-9 [4] = conditions: Jurkat T cells
Description: (§2) J. Biol Chem 276:13322-30 with some modifications. Briefly, a prepared protein extract (20 μg) is incubated in a buffer containing 50 mM Tris/pH 8.0 along with each respective caspase substrate at 20 μM in a 96 well plate. The reaction mixture is incubated at 37° C. for 2 h. After incubation, the liberated fluorescent AMC or AFC groups are measured by a Wallac Victor 1420 Multilabel counter (Turku, Finland) with 355/460 […] and 405/535 nm filters, respectively.

caspase-8 = conditions: Jurkat T cells; for increase of caspase-8 levels over untreated cells: 8 hours
Description: as §2

caspase-3 [5] = conditions: LNCaP cells, 48 h, 50 μM
Description: To measure cell-free caspase-3 activity, whole cell extracts (20-30 μg) from untreated or treated LNCaP cells were incubated with 20 μM of the fluorogenic substrate caspase-3/caspase-7 (Ac-DEVD-AMC) for 30 min at 37° C. in 100 μl of assay buffer (50 mM Tris, pH 8.0).

MCF-7 cells = test: MTT assay, MCF-7; type: cell-based, human; conditions: MCF-7, 50 μM, 24 hours
Description: MCF-7, MDA-MB-231, PC-3 and PCI-13 cells were grown to 50% confluency in a 24 well plate. […] A stock 5 mg/ml of MTT in serum-free media was then added to the cell cultures at a final concentration of 1 mg/ml, followed by a 3 hour incubation at 37° C. After cells crystallized, the media was removed and DMSO added to dissolve the metabolized MTT product. The absorbance was then measured on a Wallac Victor 1420 Multilabel counter at […].

WI-38 cells [6] = conditions: 50 μM
Description: as §1
(§3) An MTT assay was performed in a 96-well plate, which measures cellular mitochondrial function and thereby cytotoxicity.

VA-13 cells [7] = conditions: 50 μM
Description: as §1, §3

Jurkat T cells [8] = type: cell-based, human; conditions: for loss of membrane permeability (trypan blue incorporation): 8 hours
Description: The trypan blue exclusion assay was performed by injecting 10 μl of cell suspension containing 0.2% trypan blue dye into a hemoicytometer and counting. Numbers of cells that absorbed the dye and those that excluded the dye are counted, from which the percentage of non-viable cell number to total cell number is calculated.

WI-38 cells [9] = conditions: 50 μM; remark: listed apart in the source
Description: as §1
(§4) To assay nuclear morphology, both the detached or remaining attached solid tumor cells were washed with PBS, fixed with 70% ethanol for 1 hour, and stained with Hoechst 33342 (50 μM) for 30 minutes. The nuclear morphology of cells was visualized by a fluorescence microscope.

VA-13 cells [10] = conditions: detached VA-13 cells, 50 μM
Description: as §1, §4

Jurkat T cells [11] = conditions: for inhibition of 3H-thymidine incorporation: Jurkat T cells
Description: Incorporation of ^3H-thymidine into cells was measured as disclosed in Smith D M and Dou Q P, 2001, Green tea polyphenol epigallocatechin inhibits DNA replication and consequently induces leukemia cell apoptosis. Int J Mol Med 7:645-52. Jurkat T cells are pre-treated with a selected lactam for the indicated number of hours, followed by co-incubation with 2 μl/ml of [methyl-^3H]-thymidine [80 Ci (1.5 TBq)/mMol] at 37° C. for 2 hours. After harvesting, the cell pellet is washed with PBS, resuspended in 0.5 ml of PBS and collected on a glass microfiber filter. The filter is then washed with 5 ml/filter of PBS, followed by 5 ml/filter of ice-cold 0.1N NaOH and 5 ml/filter of ethanol. The filters containing fixed DNA are dried, and the remaining radioactivity is measured on a scintillation counter.

## COC1C(=O)N(SC)C1c1ccccc1Cl (racemic) [lactam 1]
Cytochrome C
  levels of cytosolic cytochrome C: significantly increased
  levels of mitochondrial cytochrome C: decreased
caspase-9 [1]; VA-13 cells
  cell-free caspase-9 activity: activated cell-free caspase-9 activity
caspase-9 [1]; WI-38 cells
  cell-free caspase-9 activity: no caspase-9 activation was detected
caspase-3 [2]; VA-13 cells
  processing and activation of caspase-3: detected only in the transformed, but not normal, human cells
caspase-3 [2]; WI-38 cells
  processing and activation of caspase-3: detected only in the transformed, but not normal, human cells
caspase-3 [3]; 50 μM
  time at which cell-free caspase-3 activity was first observed: 4 h
caspase-3 [3]; 50 μM, 8 hours
  caspase-3 activation: greatest potency
caspase-3 [3]; 8 hours, 20 μM
  increase of caspase-3 levels over untreated cells: 2 fold
caspase-3 [3]; 8 hours, 30 μM
  increase of caspase-3 levels over untreated cells: 3 fold
caspase-3 [3]; 8 hours, 40 μM
  increase of caspase-3 levels over untreated cells: 5 fold
caspase-3 [3]; 8 hours, 50 μM
  increase of caspase-3 levels over untreated cells: 11 fold
caspase-9 [4]; 50 μM
  time at which caspase-9 activity is first detected: 4 h
caspase-9 [4]; 8 hours, higher concentrations of lactam 1
  caspase-9 activity: Higher levels
caspase-8; 50 μM
  time at which caspase-8 activity was detected: 2 h
  time of maximal caspase-8 activity: 6 h
  increase of caspase-8 levels over untreated cells: 5 fold
caspase-8; 30 to 40 μM
  increase of caspase-8 levels over untreated cells: 2 fold
caspase-3 [5]
  increase in caspase-3 activity over control: 2.5 fold
MCF-7 cells
  decrease of cellular viability (MTT): 80%
WI-38 cells [6]; 24 hours
  cell growth (MTT): slightly inhibited the cell growth
WI-38 cells [6]; 120 hours
  cell population: doubled
VA-13 cells [7]; 6 or 24 hours
  cell growth (MTT): completely inhibited growth
VA-13 cells [7]; 120 hours
  viable cells: no viable VA-13 cells
Jurkat T cells [8]; 30 μM, 24 h
  cell death (trypan blue): 42%
Jurkat T cells [8]; 50 μM, 3 h
  cell death (trypan blue): 11%
Jurkat T cells [8]; 50 μM, 4 hours
  non-viable cell population (trypan blue): 20%
Jurkat T cells [8]; 50 μM, 6 h
  trypan blue-positive cells: 20%
Jurkat T cells [8]; 50 μM, 24 h
  non-viable cell population / cell death (trypan blue): 60% and ~52% and ~50%
Jurkat T cells [8]; 50 μM
  loss of membrane permeability (trypan blue incorporation): ~30%
Jurkat T cells [8]; 60 μM
  loss of membrane permeability (trypan blue incorporation): ~80%
Jurkat T cells [8]; 20-40 μM
  loss of membrane permeability (trypan blue incorporation): ~10%
WI-38 cells [9]
  nuclear morphology (Hoechst 33342): remained attached with normal nuclei
VA-13 cells [10]
  nuclear morphology (Hoechst 33342): apoptotic nuclear condensation and fragmentation
Jurkat T cells [11]; 20 μM, 2 h pre-incubation + 2 hour co-incubation
  inhibition of 3H-thymidine incorporation: 20%
Jurkat T cells [11]; 30 μM, 2 h pre-incubation + 2 hour co-incubation
  inhibition of 3H-thymidine incorporation: 45%
Jurkat T cells [11]; 40 μM, 2 h pre-incubation + 2 hour co-incubation
  inhibition of 3H-thymidine incorporation: 90%
Jurkat T cells [11]; 50 μM, added at the same time as 3H-thymidine, co-incubated 2 h
  inhibition of 3H-thymidine incorporation: ~70%
Jurkat T cells [11]; 50 μM, pre-incubation 2 to 8 h, then 2 hour with 3H-thymidine
  inhibition of 3H-thymidine incorporation: 95%
Jurkat T cells [11]; 50 or 60 μM, 2 h pre-incubation + 2 hour co-incubation
  inhibition of 3H-thymidine incorporation: ~100%
Jurkat T cells [11]; read-out: half-maximal inhibition value for incorporation of 3H-thymidine (IC50), intact Jurkat cells, total treatment 4 h
  IC50: 32 µM

Reference: patent US7635693B2, “Methods for preventing and treating cancer using N-thiolated β-lactam compounds and analogs thereof” (University of South Florida, priority 2002, dated 2009)
